Test results: the supplement of paper PMC10307832

Key:
Assay in all cases: relative viability (nuclei count vs DMSO), 5 days (fraction); higher = more cells survive
[1] = compound: CCCS(=O)(=O)Nc1ccc(F)c(C(=O)c2c[nH]c3ncc(-c4ccc(Cl)cc4)cc23)c1F [Vemurafenib] + CC(=O)c1c(C)c2cnc(Nc3ccc(N4CCNCC4)cn3)nc2n(C2CCCC2)c1=O [Palbociclib] (partner 0.5 µM)
Procedure, shortened: (§1)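 One day after seeding in 1536-well plates, lung cancer cell lines were dosed by pin tool. Dosing was either single-drug or a fixed anchor-drug dose plus five library-drug doses (not always all listed) in √10 steps. After 5 days, nuclei were stained in one fix-and-stain step and counted on 4× images, and relative viability is the nuclei count of treated wells over that of vehicle wells, given as the median of duplicate plates.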

Alpelisib + Pictilisib = compound: Cc1nc(NC(=O)N2CCC[C@H]2C(N)=O)sc1-c1ccnc(C(C)(C)C(F)(F)F)c1 [Alpelisib] + CS(=O)(=O)N1CCN(Cc2cc3nc(-c4cccc5[nH]ncc45)nc(N4CCOCC4)c3s2)CC1 [Pictilisib] (partner 1 µM)
Procedure, shortened: as §1

Vemurafenib + Lapatinib = compound: CCCS(=O)(=O)Nc1ccc(F)c(C(=O)c2c[nH]c3ncc(-c4ccc(Cl)cc4)cc23)c1F [Vemurafenib] + CS(=O)(=O)CCNCc1ccc(-c2ccc3ncnc(Nc4ccc(OCc5cccc(F)c5)c(Cl)c4)c3c2)o1 [Lapatinib] (partner 2 µM)
Procedure, shortened: as §1

Vemurafenib + Dasatinib = compound: CCCS(=O)(=O)Nc1ccc(F)c(C(=O)c2c[nH]c3ncc(-c4ccc(Cl)cc4)cc23)c1F [Vemurafenib] + Cc1nc(Nc2ncc(C(=O)Nc3c(C)cccc3Cl)s2)cc(N2CCN(CCO)CC2)n1 [Dasatinib] (partner 0.075 µM)
Procedure, shortened: as §1

Cell Line | relative viability ([1]; first compound 0.03162 µM) | relative viability ([1]; first compound 0.1 µM) | relative viability ([1]; first compound 0.3162 µM) | relative viability ([1]; first compound 1 µM) | relative viability (Alpelisib + Pictilisib; first compound 0.04 µM) | relative viability (Alpelisib + Pictilisib; first compound 0.1265 µM) | relative viability (Alpelisib + Pictilisib; first compound 0.4 µM) | relative viability (Alpelisib + Pictilisib; first compound 1.265 µM) | relative viability (Alpelisib + Pictilisib; first compound 4 µM) | relative viability (Vemurafenib + Lapatinib; first compound 0.03162 µM) | relative viability (Vemurafenib + Lapatinib; first compound 0.1 µM) | relative viability (Vemurafenib + Lapatinib; first compound 0.3162 µM) | relative viability (Vemurafenib + Lapatinib; first compound 1 µM) | relative viability (Vemurafenib + Dasatinib; first compound 0.03162 µM) | relative viability (Vemurafenib + Dasatinib; first compound 0.1 µM) | relative viability (Vemurafenib + Dasatinib; first compound 0.3162 µM) | relative viability (Vemurafenib + Dasatinib; first compound 1 µM)
201T | 0.37 | 0.309 | 0.365 | 0.402 | 0.655 | 0.725 | 0.637 | 0.642 | 0.62 | 0.965 | 1.02 | 1.02 | 1.04 | 0.525 | 0.521 | 0.622 | 0.523
A549 |  |  |  |  | 0.464 | 0.504 | 0.529 | 0.414 | 0.338 | 0.902 | 0.964 | 1.06 | 1.07 |  |  |  | 
A-427 | 0.525 | 0.481 |  | 0.553 | 0.694 | 0.641 | 0.741 | 0.675 | 0.718 | 0.907 | 1.07 | 0.973 | 1.04 | 0.597 | 0.624 | 0.446 | 0.581
ABC-1 | 0.744 | 0.57 | 0.767 | 0.545 | 0.721 | 0.775 | 1.05 | 0.627 | 0.477 | 1.19 | 0.991 | 1.35 | 0.973 |  | 0.563 |  | 0.567
BEN | 0.489 | 0.492 | 0.421 | 0.491 | 0.562 | 0.523 | 0.705 | 0.579 | 0.578 | 0.765 | 0.77 | 0.323 | 0.525 | 0.274 | 0.257 |  | 0.309
CAL-12T | 0.408 | 0.251 | 0.444 | 0.439 | 0.388 |  | 0.65 |  | 0.329 | 0.63 |  |  | 0.618 | 0.42 | 0.266 | 0.454 | 0.374
COR-L23 | 0.325 | 0.257 | 0.178 | 0.265 | 0.744 | 0.79 | 0.865 | 0.594 | 0.636 | 1.01 | 0.91 | 0.684 | 0.98 | 0.423 | 0.503 | 0.443 | 0.482
COR-L 105 | 0.405 |  | 0.328 | 0.403 | 0.39 | 0.352 | 0.435 | 0.378 | 0.341 | 0.348 |  | 0.32 | 0.373 | 0.317 |  |  | 0.316
Calu-6 |  |  |  |  | 0.86 | 0.945 | 1.09 | 0.819 | 0.841 | 1.02 | 1.06 | 1.01 | 0.924 |  |  |  | 
ChaGo-K-1 | 0.941 | 0.884 | 0.878 | 0.913 | 0.714 |  | 0.883 | 0.625 | 0.492 |  |  |  |  | 0.511 | 0.517 | 0.396 | 0.6
EBC-1 |  |  |  |  | 0.417 | 0.345 | 0.412 | 0.298 | 0.349 | 0.201 | 0.214 | 0.245 | 0.261 |  |  |  | 
EKVX | 0.41 |  | 0.367 | 0.422 | 0.441 | 0.419 | 0.419 | 0.466 | 0.428 | 0.189 |  | 0.253 | 0.208 | 0.51 |  | 0.661 | 0.515
EMC-BAC-2 | 0.491 | 0.416 | 0.407 | 0.468 | 0.512 | 0.516 | 0.62 | 0.528 | 0.479 | 0.874 | 0.916 | 0.812 | 0.882 | 0.175 | 0.28 | 0.209 | 0.337
EPLC-272H | 0.34 | 0.3 | 0.413 | 0.353 | 0.338 | 0.282 | 0.298 | 0.336 | 0.262 | 0.913 | 1 | 0.423 | 0.939 | 0.299 | 0.25 | 0.338 | 0.41
H3255 | 0.318 |  | 0.301 | 0.307 | 0.409 | 0.516 | 0.533 | 0.356 | 0.411 | 0.254 |  | 0.283 | 0.28 | 0.36 |  | 0.446 | 0.371
HARA | 0.26 | 0.17 | 0.304 | 0.318 | 0.3 | 0.488 | 0.459 | 0.326 | 0.244 | 0.745 |  | 0.782 | 0.625 | 0.272 | 0.215 | 0.195 | 0.201
HCC-15 | 0.717 | 0.689 | 0.673 | 0.775 | 0.721 | 0.673 | 0.822 | 0.716 | 0.63 | 0.786 | 0.849 | 0.613 | 0.773 | 0.551 | 0.67 |  | 0.726
HCC-44 | 0.957 | 0.887 | 0.957 | 0.926 | 0.669 | 0.654 | 0.822 | 0.491 | 0.441 | 0.991 | 0.993 | 0.935 | 1.04 |  |  |  | 
HCC-78 | 0.495 | 0.464 | 0.473 | 0.537 | 0.21 | 0.187 | 0.218 | 0.222 | 0.228 | 0.725 | 0.832 | 0.982 | 0.386 | 0.359 | 0.329 | 0.593 | 0.37
HCC-366 | 0.359 | 0.332 |  | 0.321 | 0.151 | 0.137 | 0.196 | 0.11 | 0.222 | 1.09 | 1.07 |  | 1.05 | 0.576 | 0.643 | 0.265 | 0.564
HCC-827 | 0.413 |  | 0.509 | 0.511 | 0.887 | 1.18 | 0.933 | 0.973 | 0.651 | 0.209 |  | 0.22 | 0.191 | 0.386 |  | 0.399 | 0.348
HOP-62 | 0.436 | 0.437 | 0.371 | 0.396 | 1.06 | 0.698 | 0.988 | 0.586 | 0.727 | 0.915 | 1.14 | 0.906 | 0.796 | 0.535 | 0.549 | 0.292 | 0.66
